The values that follow are results of earlier work, collected in US20050142194A1, “Composition comprising CS” (ALTERGON S.A., priority 2003, published 2005).

For one data set, the system named is pepsin. Particulars: prior art statement, middle of the twentieth century.
The conditions of data set [1]: general statement of the prior art part.

With chondroitin sulfate, in the data set on pepsin, the “action on the proteolytic activity of pepsin” value was “clear inhibitory action”. Further, the solubility in water result in data set [1] is “poorly soluble in water”.

In the case of sodium chondroitin sulfate, the solubility in water entry in data set [1] is “poorly soluble in water”.
